Results: article PMC6600574 (Molecules, 2019)
“Also recorded” adds a separate entry of the source.

What was measured:
Type in all cases: in vitro ADME
[1] = target: T1, CYP 2C19 (liver microsomes) (Homo sapiens, UniProt P33261); assay: Inhibition of hepatic microsome-catalyzed CYP oxidation; conditions: CYP 2C19, substrate TFD032, liver microsomes
T1 construct: from tissue; host or cells: human liver microsomes
Description: (§1) Incubations were carried out in a total volume of 100 µl of 100 mM Tris-HCl buffer (pH 7.4) in all black, flat-bottom Costar 96-well plates (Corning Incorporated, Corning, NY, USA). […] The samples were then preincubated at 37 °C for 10 min. The reactions were initiated by the addition of NADPH, and 0–10 µM 7-hydroxycoumarin was used as the standard. The fluorescent signal was measured with a Victor^2 1420 multilabel plate counter (PerkinElmer Lifesciences Wallac, Turku, Finland) with excitation and emission wavelengths of 405 and 460 nm, respectively. Fluorescence was monitored every 2 min for 40 min from where the concentration was calculated at the various time points. From these, oxidation rates (µM/min) and the relative remaining activity of the sample at different concentrations were calculated. The data were fit to sigmoidal dose-response curves with nonlinear regression, and IC50 values (the concentration at which the sample reduced the metabolism of the CYP substrate by 50%) were determined. […] This was analyzed using nonlinear equations in Graph Pad Prism, which produced IC50 values and its 95% confidence interval as the results.

[2] = target: T2, CYP 3A4 (liver microsomes) (Homo sapiens, UniProt P08684); assay: as above; conditions: CYP 3A4, substrate OCA369, liver microsomes; read-out: Microsomal IC50 (µM) with 95% Confidence Intervals
T2 construct: from tissue; host or cells: human liver microsomes
T2 sequence (P08684 whole entry): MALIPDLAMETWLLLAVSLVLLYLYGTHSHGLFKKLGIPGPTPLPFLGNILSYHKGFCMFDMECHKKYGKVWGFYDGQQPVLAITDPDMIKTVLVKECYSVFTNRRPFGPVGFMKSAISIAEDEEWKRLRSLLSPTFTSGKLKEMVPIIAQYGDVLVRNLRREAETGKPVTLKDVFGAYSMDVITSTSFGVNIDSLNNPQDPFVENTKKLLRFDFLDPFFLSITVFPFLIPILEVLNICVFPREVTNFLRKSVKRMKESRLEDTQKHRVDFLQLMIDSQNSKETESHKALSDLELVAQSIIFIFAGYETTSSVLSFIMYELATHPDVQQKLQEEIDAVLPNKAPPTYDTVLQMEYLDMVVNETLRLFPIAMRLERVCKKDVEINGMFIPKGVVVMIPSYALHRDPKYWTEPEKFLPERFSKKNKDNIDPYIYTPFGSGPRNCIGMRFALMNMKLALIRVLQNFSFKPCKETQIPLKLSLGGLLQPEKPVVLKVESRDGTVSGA
Description: as §1

[3] = target: T3, CYP 2A6 (liver microsomes) (Homo sapiens, UniProt P11509); assay: as above; conditions: CYP 2A6, substrate coumarin, read-out: Microsomal IC50 (µM) with 95% Confidence Intervals
T3 construct: from tissue; host or cells: human liver microsomes
T3 sequence (P11509 1-494): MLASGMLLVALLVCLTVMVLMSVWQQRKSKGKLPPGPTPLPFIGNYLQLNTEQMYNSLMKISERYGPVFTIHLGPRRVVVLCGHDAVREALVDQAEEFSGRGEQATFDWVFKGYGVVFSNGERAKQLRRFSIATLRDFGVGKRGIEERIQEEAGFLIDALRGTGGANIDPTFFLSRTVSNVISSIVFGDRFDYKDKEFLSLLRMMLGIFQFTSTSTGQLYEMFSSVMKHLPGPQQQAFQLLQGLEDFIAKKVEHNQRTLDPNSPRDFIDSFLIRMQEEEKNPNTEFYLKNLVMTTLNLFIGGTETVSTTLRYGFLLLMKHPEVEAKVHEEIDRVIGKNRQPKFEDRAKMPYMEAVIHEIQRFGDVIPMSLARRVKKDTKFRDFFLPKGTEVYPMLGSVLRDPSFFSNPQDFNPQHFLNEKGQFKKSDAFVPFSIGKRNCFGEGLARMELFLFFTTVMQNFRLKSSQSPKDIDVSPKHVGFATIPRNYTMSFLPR
Description: as §1

[4] = target: T4, CYP 1A2 (liver microsomes) (Homo sapiens, UniProt P05177); assay: as above; conditions: CYP 1A2, substrate OCA349, liver microsomes; read-out: Microsomal IC50 (µM) with 95% Confidence Intervals
T4 construct: from tissue; host or cells: human liver microsomes
T4 sequence (P05177 whole entry): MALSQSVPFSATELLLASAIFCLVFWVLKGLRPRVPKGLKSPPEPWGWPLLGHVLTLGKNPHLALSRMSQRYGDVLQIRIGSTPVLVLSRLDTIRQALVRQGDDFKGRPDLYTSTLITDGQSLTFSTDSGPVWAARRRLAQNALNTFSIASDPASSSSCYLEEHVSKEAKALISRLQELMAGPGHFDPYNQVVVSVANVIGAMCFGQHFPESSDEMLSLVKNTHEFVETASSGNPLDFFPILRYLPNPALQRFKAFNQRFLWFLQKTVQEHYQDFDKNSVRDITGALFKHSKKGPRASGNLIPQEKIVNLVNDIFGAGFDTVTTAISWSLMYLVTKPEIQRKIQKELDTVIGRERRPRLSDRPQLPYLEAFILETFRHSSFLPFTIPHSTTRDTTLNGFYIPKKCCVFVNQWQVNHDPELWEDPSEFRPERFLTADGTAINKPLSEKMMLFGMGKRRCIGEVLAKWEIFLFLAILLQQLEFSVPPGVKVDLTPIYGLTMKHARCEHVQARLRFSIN
Description: as §1

[5] = target: T5, CYP 2D6 (liver microsomes) (Homo sapiens, UniProt P10635); assay: as above; conditions: CYP 2D6, substrate TFD023, liver microsomes; read-out: Microsomal IC50 (µM) with 95% Confidence Intervals
T5 construct: from tissue; host or cells: human liver microsomes
T5 sequence (P10635 whole entry): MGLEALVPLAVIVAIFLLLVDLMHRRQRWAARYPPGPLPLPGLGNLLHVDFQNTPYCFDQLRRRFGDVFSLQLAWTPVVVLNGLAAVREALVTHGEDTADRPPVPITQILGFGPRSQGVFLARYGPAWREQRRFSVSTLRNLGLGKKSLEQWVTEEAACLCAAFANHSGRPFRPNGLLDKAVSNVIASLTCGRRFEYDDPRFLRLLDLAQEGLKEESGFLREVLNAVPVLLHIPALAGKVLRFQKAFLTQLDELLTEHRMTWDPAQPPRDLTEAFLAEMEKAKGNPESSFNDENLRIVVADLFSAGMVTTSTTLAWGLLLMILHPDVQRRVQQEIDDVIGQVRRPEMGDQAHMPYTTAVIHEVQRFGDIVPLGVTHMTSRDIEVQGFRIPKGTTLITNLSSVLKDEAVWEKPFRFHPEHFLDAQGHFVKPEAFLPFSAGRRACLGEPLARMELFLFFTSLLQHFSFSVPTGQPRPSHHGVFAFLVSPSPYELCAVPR
Description: as §1

[6] = target: T6, CYP1A2 (Homo sapiens, UniProt P05177); assay: Inhibition of recombinant CYP oxidation (fluorescent coumarin substrate); conditions: read-out: Recombinant CYP IC50 (µM) with 95% confidence intervals
T6 construct: purchased BD Biosciences Discovery Labware (Bedford, MA, USA)
T6 sequence (P05177 whole entry): as the sequence (P05177 whole entry) above
Description: as §1

[7] = target: T7, CYP2D6 (Homo sapiens, UniProt P10635); assay: as above; conditions: read-out: Recombinant CYP IC50 (µM) with 95% confidence intervals
T7 construct: purchased BD Biosciences Discovery Labware (Bedford, MA, USA)
T7 sequence (P10635 whole entry): as the sequence (P10635 whole entry) above
Description: as §1

[8] = target: T8, CYP3A4 (Homo sapiens, UniProt P08684); assay: as above; conditions: read-out: Recombinant CYP IC50 (µM) with 95% confidence intervals
T8 construct: purchased BD Biosciences Discovery Labware (Bedford, MA, USA)
T8 sequence (P08684 whole entry): as the sequence (P08684 whole entry) above
Description: as §1

[9] = target: T9, recombinant CYP 2C19 (Homo sapiens, UniProt P33261); assay: as above; conditions: CYP 2C19, substrate TFD032, 5 nM recombinant CYP, verbascoside 0.4-50 µM
T9 construct: purchased BD Biosciences Discovery Labware (Bedford, MA, USA)
T9 sequence (P33261 whole entry): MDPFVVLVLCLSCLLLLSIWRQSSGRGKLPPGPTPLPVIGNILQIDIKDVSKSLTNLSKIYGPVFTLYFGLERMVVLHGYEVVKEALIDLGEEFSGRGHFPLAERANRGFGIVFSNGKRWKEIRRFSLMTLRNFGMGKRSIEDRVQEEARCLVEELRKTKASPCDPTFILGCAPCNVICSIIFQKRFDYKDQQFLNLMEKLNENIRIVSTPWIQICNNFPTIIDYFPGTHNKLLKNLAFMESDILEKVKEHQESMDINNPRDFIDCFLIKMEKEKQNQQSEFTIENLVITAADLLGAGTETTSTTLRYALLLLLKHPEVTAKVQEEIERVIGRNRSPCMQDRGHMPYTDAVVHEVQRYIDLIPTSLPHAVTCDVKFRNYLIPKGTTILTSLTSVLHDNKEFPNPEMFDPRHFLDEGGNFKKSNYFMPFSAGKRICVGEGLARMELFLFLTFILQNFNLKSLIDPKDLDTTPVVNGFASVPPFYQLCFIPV
Description: as §1

[10] = target: T10, recombinant CYP 2A6 (Homo sapiens, UniProt P11509); assay: as above; conditions: CYP 2A6, substrate coumarin, 5 nM recombinant CYP, verbascoside 0.4-50 µM
T10 construct: purchased BD Biosciences Discovery Labware (Bedford, MA, USA)
T10 sequence (P11509 1-494): T3 sequence (P11509 1-494)
Description: as §1

[11] = target: T11, CYP1B1 (Homo sapiens, UniProt Q16678); assay: as above; conditions: read-out: Recombinant CYP IC50 (µM) with 95% confidence intervals
T11 construct: purchased BD Biosciences Discovery Labware (Bedford, MA, USA)
T11 sequence (Q16678 1-543): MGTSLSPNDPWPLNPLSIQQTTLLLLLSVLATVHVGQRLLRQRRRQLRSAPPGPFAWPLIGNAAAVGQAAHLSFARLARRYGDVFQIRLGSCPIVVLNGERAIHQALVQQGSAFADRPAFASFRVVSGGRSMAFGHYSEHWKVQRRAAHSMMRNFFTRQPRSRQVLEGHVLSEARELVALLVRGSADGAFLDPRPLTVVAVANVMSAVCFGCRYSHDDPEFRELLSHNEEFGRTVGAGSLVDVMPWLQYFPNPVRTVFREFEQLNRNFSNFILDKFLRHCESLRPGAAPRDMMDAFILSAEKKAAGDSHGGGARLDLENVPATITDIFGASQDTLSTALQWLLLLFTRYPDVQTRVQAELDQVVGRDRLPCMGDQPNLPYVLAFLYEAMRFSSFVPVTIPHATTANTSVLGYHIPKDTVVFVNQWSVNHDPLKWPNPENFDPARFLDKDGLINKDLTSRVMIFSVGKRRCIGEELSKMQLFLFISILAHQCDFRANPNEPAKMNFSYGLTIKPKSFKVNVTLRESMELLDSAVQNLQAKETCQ
Description: as §1

T1 sequence (P33261 whole entry): as the sequence (P33261 whole entry) above

For `C[C@@H]1O[C@@H](O[C@@H]2[C@@H](O)[C@H](OCCc3ccc(O)c(O)c3)O[C@H](CO)[C@H]2OC(=O)/C=C/c2ccc(O)c(O)c2)[C@H](O)[C@H](O)[C@H]1O` [Verbascoside], the “Microsomal IC50 (µM) with 95% Confidence Intervals” value [1] was “Stimulation ^c”, the “Microsomal IC50 (µM) with 95% Confidence Intervals” value ([1]; listed as verbascoside) was “weak ability to stimulate” and the IC50 [2] was 76 µM. The IC50 [3] was 135 µM, the IC50 [4] was 24 µM and the IC50 [5] was 96 µM. It also gave an IC50 at 40 min ([6]; human, recombinant CYP1A2, pH 7.4) of over 50 µM, an IC50 [6] of 83 µM and an IC50 at 40 min ([7]; human, recombinant CYP2D6, pH 7.4, probe TFD023 (3-(4-phenyl)-7-methoxycoumarin), 10 µM) of over 50 µM. It also gave an IC50 [7] of 131 µM, an IC50 at 40 min ([8]; human, recombinant CYP3A4, pH 7.4, probe OCA369 (3-(3-benzyloxo)phenyl-7-methoxycoumarin), 10 µM) of over 50 µM and an IC50 [8] of 314 µM. For the same compound, the “Recombinant CYP IC50 (µM) with 95% confidence intervals” value [9] was “Stimulation ^c”, the “Recombinant CYP IC50 (µM) with 95% confidence intervals” value ([9]; listed as verbascoside) was “did not inhibit; also recorded: weak ability to stimulate” and the “Recombinant CYP IC50 (µM) with 95% confidence intervals” value [10] was “No inhibition”. For the same compound, the “Recombinant CYP IC50 (µM) with 95% confidence intervals” value ([10]; listed as verbascoside) was “did not inhibit”, the IC50 at 40 min ([11]; human, recombinant CYP1B1, pH 7.4, probe TFD008 1 (3-(4-phenylacetate)-6-chlorocoumarin), 10 µM) was over 50 µM and the IC50 [11] was 86 µM.
